The record followed here is US20090042917A1, “Aminopyrimidine Derivative and Plant Disease Control Agent for Agricultural or Horticultural Use” (KUMIAI CHEMICAL INDUSTRY CO., LTD., priority 2006, published 2009).

Broadly, the melting point is the temperature, or range, at which the solid turns liquid.

The subject of one data set is Botrytis cinerea. Description: Test on protective effect against Botrytis cinerea (cucumber seedlings). In kind it is in vivo. The conditions noted are these: 500 ppm active ingredient sprayed on cucumber (Sagami-Hanziro) seedlings before inoculation; 2 days after. As to the method:
4 cucumber seeds (variety: Sagami-Hanziro) were sown in each plastic cup having a diameter of 5.5 cm and allowed to grow for 7 days in a greenhouse. […] After air drying, a sterilized paper disc was immersed in a conidia suspension of Botrytis cinerea and laid on an upper side of a cucumber cotyledon for innoculation and thereafter cared in a moist chamber at 20° C.

The test system of data set [1] is Pseudoperonospora cubensis. Nature of the data set: Test on protective effect against Pseudoperonospora cubensis (cucumber seedlings). The conditions noted are these: 500 ppm active ingredient sprayed on cucumber (Sagami-Hanziro) seedlings before inoculation, 6 days after; for pest or weed control at 500 ppm: Pseudoperonospora cubensis, 144 h, read-out: control level. In kind it is in vivo. As to the method: 4 cucumber seeds (variety: Sagami-Hanziro) were sown in each plastic cup having a diameter of 5.5 cm and allowed to grow for 7 days in a greenhouse. […] After air drying, the plants were inoculated by spraying with a conidia suspension of Pseudoperonospora cubensis. The inoculated plants were immediately put in a moist chamber at 20° C. (relative humidity of 100%) for 24 hours. Thereafter, the plants were transferred to a greenhouse. 6 days after, disease development indexes of cotyledons for total pots were examined according to the standard described below, a disease severity was determined using an expression shown below and a control level (%) was calculated using another expression shown below. The standard for disease development index is as follows: [table] Hereinbelow, an expression to calculate a disease severity (%) is shown. [formula] Hereinbelow, an expression to calculate a control level (%) is shown. [formula]

The next data set has as its system Rhizoctonia solani. Nature of the data set: Test on protective effect against Rhizoctonia solani (rice pot test). To be noted: 500 ppm active ingredient sprayed on rice (Kinmaze) at 2.5 to 3-leaf stage before inoculation, 5 days after inoculation; for pest or weed control at 500 ppm: Rhizoctonia solani, 120 h, read-out: control level. In kind it is in vivo. As to the method: 15 rice seeds (variety: Kinmaze) were sown in each clay pot having a diameter of 7.5 cm and allowed to grow for 3 weeks in a greenhouse. […] After air drying, the plants were inoculated by uniformly covering the surface of the soil with Rhizoctonia solani cultured in a rice-husk bran medium and incubated in a moist chamber at 30° C. […] The standard for disease development index is as follows: [table] Hereinbelow, an expression to calculate a control level (%) is shown. [formula]

A further data set deals with Septoria nodorum. Description: Test on protective effect against Septoria nodorum (wheat). To be noted: 500 ppm active ingredient sprayed on wheat (Norin No. 61) at two-leaf stage before inoculation, 9 days after; for pest or weed control at 500 ppm: Parastagonospora nodorum, 216 h, read-out: control level. The format is in vivo. The protocol: 10 wheat seeds (variety: Norin No. 61) were sown in each plastic cup having a diameter of 5.5 cm and allowed to grow for 9 days in a greenhouse. […] After air drying, the plants were inoculated by spraying with a pycnidiospore suspension of Septoria nodorum. The inoculated plants were immediately put in a moist chamber at 25° C. (relative humidity of 100%) for 48 hours. Thereafter, the plants were transferred to a greenhouse. 9 days after, disease development indexes of first leaves for total pots were examined according to the standard in Test Example 3, a disease severity was determined using the expression in Test Example 3 and a control level (%) was calculated using the expression in Test Example 3.

In another data set the test system is Pyricularia oryzae. Description: whole plant or invertebrate. The format is in vivo. The conditions noted are these: for pest or weed control at 500 ppm: Pyricularia oryzae, 120 h, read-out: control level.
A further data set concerns Erysiphe graminis. Nature of the data set: Test on protective effect against Erysiphe graminis (wheat). The conditions noted are these: Blumeria graminis, 168 h; 500 ppm active ingredient sprayed on wheat (Norin No. 61) at 1.5 to 2-leaf stage before inoculation; 7 days after; read-out: control level. The format is in vivo. As to the method:
10 wheat seeds (variety: Norin No. 61) were sown in each plastic cup having a diameter of 5.5 cm and allowed to grow for 8 days in a greenhouse. […] After air drying, the plants were inoculated by equally sprinkling with conidia of Erysiphe graminis by using a midget duster or the like for innoculation and then incubated in a greenhouse until a development of disease. 7 days after, disease development indexes of first leaves for total pots were examined according to the standard in Test Example 3, a disease severity was determined using the expression in Test Example 3 and a control level (%) was calculated using the expression in Test Example 3.

Molecules are shown by their SMILES.

In the case of `Clc1nc(-n2cccn2)nc(N2CCCC2)c1Cc1ccccc1` [Comparative Compound 1, reference compound], the control level entry is “did not exhibit a control effect” in the data set on Botrytis cinerea; “did not exhibit a control effect” in data set [1]; “did not exhibit a control effect” in the data set on Rhizoctonia solani; “did not exhibit a control effect” with Septoria nodorum; “did not exhibit a control effect” in the data set on Pyricularia oryzae (500 ppm active ingredient sprayed on rice (Aichi Asahi) at four-leaf stage before inoculation, lesions counted 5 days after inoculation).
For `Cc1cc(C)n(-c2nc(C)c(C)c(NN)n2)n1` [Comparative Compound 2, reference compound], in the data set on Botrytis cinerea, the control level turned out to be 25%. Besides, the pest or weed control at 500 ppm in the data set with Rhizoctonia solani was 50%; in the data set with Septoria nodorum, 75%.
`CCC(C)c1c(F)nc(-n2cccn2)nc1NCC(F)(F)F` (stereo not shown) [Compound No. 0349, 5-sec-butyl-6-fluoro-2-(1H-pyrazol-1-yl)-N-(2,2,2-trifluoroethyl)pyrimidine-4-amine] had a melting point of 132 to 134 °C. Further, the pest or weed control at 500 ppm in the data set on Erysiphe graminis came out at 100%. For the same compound, the pest or weed control at 500 ppm in data set [1] is 100%. Besides, the pest or weed control at 500 ppm in the data set with Rhizoctonia solani was found to be 100%. Besides, in the data set on Septoria nodorum, the pest or weed control at 500 ppm was determined as 100%. The pest or weed control at 500 ppm in the data set with Pyricularia oryzae is 100%.
Compound `CCC(C)c1c(Cl)nc(-n2cccn2)nc1NCC(F)(F)F` (stereo not shown) [Compound No. 0350, 5-sec-butyl-6-chloro-2-(1H-pyrazol-1-yl)-N-(2,2,2-trifluoroethyl)pyrimidine-4-amine] showed a melting point of 137 to 139 °C. In addition, in the data set with Erysiphe graminis, the pest or weed control at 500 ppm was determined as 100%. Moreover, the pest or weed control at 500 ppm in data set [1] was determined as 100%. Besides, the pest or weed control at 500 ppm in the data set on Rhizoctonia solani was found to be 100%. In the data set on Septoria nodorum, the pest or weed control at 500 ppm was found to be 100%. In addition, in the data set with Pyricularia oryzae, the pest or weed control at 500 ppm came out at 100%.
`CCC(C)c1c(Br)nc(-n2cccn2)nc1NCC(F)(F)F` (stereo not shown) [Compound No. 0351, 6-bromo-5-sec-butyl-2-(1H-pyrazol-1-yl)-N-(2,2,2-trifluoroethyl)pyrimidine-4-amine] returned a melting point of 136 to 139 °C. Moreover, in the data set on Erysiphe graminis, the pest or weed control at 500 ppm was determined as 100%. In data set [1], the pest or weed control at 500 ppm was 100%. In addition, the pest or weed control at 500 ppm with Rhizoctonia solani came to 100%. In addition, in the data set on Septoria nodorum, the pest or weed control at 500 ppm was 100%. In addition, the pest or weed control at 500 ppm in the data set on Pyricularia oryzae worked out at 100%.
On to `CCc1nc(-n2cccn2)nc(NCC(F)(F)F)c1C(C)CC` (stereo not shown) [Compound No. 0385, 5-sec-butyl-6-ethyl-2-(1H-pyrazol-1-yl)-N-(2,2,2-trifluoroethyl)pyrimidine-4-amine], for which the melting point was 89 to 90 °C. In addition, the pest or weed control at 500 ppm in the data set with Erysiphe graminis stood at 100%. The pest or weed control at 500 ppm in data set [1] is 100%. The pest or weed control at 500 ppm in the data set on Septoria nodorum amounted to 100%. In addition, in the data set on Pyricularia oryzae, the pest or weed control at 500 ppm turned out to be 100%.
The compound `CCC(C)c1c(NCC(F)(F)F)nc(-n2cccn2)nc1C1CC1` (stereo not shown) [Compound No. 0387, 5-sec-butyl-6-cyclopropyl-2-(1H-pyrazol-1-yl)-N-(2,2,2-trifluoroethyl)pyrimidine-4-amine] showed a melting point of 84 to 85 °C. For the same compound, the pest or weed control at 500 ppm in the data set with Erysiphe graminis came out at 100%. Also, the pest or weed control at 500 ppm in data set [1] worked out at 100%. Besides, the pest or weed control at 500 ppm with Rhizoctonia solani turned out to be 100%. In addition, the pest or weed control at 500 ppm with Pyricularia oryzae is 100%.
As for `CCC(C)c1cnc(-n2cccn2)nc1N1CCC(C)CC1` (stereo not shown) [Compound No. 1190, 5-sec-butyl-4-(4-methylpiperidin-1-yl)-2-(1H-pyrazol-1-yl)pyrimidine], the pest or weed control at 500 ppm (in the data set on Erysiphe graminis; in data set [1]; with Rhizoctonia solani; in the data set with Septoria nodorum) was 100% throughout.
Consider `CCC(C)c1c(C)nc(-n2cccn2)nc1N1CCC(C)CC1` (stereo not shown) [Compound No. 1225, 5-sec-butyl-4-methyl-6-(4-methylpiperidin-1-yl)-2-(1H-pyrazol-1-yl)pyrimidine], for which the pest or weed control at 500 ppm (in the data set with Erysiphe graminis; in data set [1]; in the data set with Septoria nodorum) was 100% throughout.
